Molecular target: F508del-CFTR in CFBE41o– cells (Homo sapiens, UniProt Q99942)
Assay: CFTR immunoprecipitation and Western blot (CFTR expression and ubiquitylation)
Format: cell-based
Conditions: 24 h, 16 5 μM, VX-661 + VX-445 10 μM + 3 μM
Method: Finally, we evaluated ubiquitylation of mutant CFTR in CFBE41o^– cells following 24 h treatment with DMSO (vehicle), analogue 16, VX-661 + VX-445, and their combination. Subsequently, cells were treated for 4 h with DMSO alone or with MG-132 (10 μM; to block proteasomal degradation) and then lysed. Cell lysates were immunoprecipitated using an anti-CFTR antibody and then subjected to SDS-PAGE followed by Western blotting to evaluate CFTR expression and ubiquitylation status (Figure 9C–F). […] In brief, cells were lysed and, after centrifugation, the protein concentration in the supernatant was calculated using the BCA assay (Euroclone, Pero (MI), Italy) following supplier’s instructions An aliquot of supernatant corresponding to 600 μg of protein was incubated for 1 h with 2 μg/sample of rabbit polyclonal anti-CFTR antibody (Alomone Labs, Jerusalem, Israel), with rocking at room temperature (RT). […] Equal amounts of IP products were analyzed by Western blotting (20 μL). […] In brief, equal amounts of lysates (25 μg) or IP products (20 μL) were separated onto gradient 4–15% Criterion TGX Precast gels (Bio-rad laboratories Inc.), transferred to a nitrocellulose membrane with a Trans-Blot Turbo system (Bio-rad Laboratories Inc.), and analyzed by Western blotting. […]

Chain of F508del-CFTR in CFBE41o– cells (Q99942 2-180): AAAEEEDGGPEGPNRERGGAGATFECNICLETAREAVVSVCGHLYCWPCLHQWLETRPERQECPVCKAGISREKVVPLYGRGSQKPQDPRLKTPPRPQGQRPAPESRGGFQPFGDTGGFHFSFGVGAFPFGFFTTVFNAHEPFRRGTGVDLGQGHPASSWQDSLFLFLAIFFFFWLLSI
Chain of F508del-CFTR in CFBE41o– cells (P13569 with tags, fused parts or gaps DEL508-508 partner): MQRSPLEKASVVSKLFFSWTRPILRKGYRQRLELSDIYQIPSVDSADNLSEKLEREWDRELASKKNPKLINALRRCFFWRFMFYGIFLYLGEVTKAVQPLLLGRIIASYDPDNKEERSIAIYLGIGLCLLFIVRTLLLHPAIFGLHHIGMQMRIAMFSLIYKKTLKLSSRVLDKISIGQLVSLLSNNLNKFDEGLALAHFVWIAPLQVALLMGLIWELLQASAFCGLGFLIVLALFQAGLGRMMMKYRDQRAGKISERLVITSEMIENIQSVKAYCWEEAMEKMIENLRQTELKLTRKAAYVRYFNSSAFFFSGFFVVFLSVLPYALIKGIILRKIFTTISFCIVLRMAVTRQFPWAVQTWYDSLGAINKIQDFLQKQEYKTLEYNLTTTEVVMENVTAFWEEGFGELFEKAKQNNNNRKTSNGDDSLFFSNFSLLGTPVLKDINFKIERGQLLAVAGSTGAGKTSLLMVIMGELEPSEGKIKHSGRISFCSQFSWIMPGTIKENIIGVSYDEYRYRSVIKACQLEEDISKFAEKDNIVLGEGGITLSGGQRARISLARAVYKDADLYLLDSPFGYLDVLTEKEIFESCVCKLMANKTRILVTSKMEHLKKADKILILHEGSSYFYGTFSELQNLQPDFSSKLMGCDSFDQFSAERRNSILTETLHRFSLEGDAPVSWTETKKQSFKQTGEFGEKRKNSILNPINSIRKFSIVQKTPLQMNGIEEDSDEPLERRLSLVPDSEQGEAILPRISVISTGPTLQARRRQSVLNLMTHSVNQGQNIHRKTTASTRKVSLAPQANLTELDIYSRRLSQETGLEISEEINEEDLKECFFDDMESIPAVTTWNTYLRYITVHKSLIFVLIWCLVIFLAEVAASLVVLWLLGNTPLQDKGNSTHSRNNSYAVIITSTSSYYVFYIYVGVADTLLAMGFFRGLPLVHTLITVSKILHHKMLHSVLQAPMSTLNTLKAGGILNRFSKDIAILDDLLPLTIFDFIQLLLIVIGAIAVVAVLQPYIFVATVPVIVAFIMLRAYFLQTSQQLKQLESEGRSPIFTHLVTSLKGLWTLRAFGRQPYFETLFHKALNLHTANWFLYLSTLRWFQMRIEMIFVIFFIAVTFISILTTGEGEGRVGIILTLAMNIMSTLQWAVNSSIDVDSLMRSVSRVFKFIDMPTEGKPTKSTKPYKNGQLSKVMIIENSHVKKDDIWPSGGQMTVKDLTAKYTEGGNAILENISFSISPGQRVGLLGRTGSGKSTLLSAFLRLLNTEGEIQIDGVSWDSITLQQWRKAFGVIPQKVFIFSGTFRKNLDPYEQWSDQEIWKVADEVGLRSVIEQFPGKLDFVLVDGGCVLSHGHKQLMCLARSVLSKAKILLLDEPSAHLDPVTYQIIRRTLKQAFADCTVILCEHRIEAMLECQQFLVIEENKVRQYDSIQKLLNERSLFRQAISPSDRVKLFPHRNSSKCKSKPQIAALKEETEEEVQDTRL

- rescue of mutant CFTR (mature form, band C): very modest
Structure (SMILES): COc1cccc(Cn2c(C)ns/c2=N\C(=N\c2ccccc2)c2ccccc2)c1 [Compound 16, (E)-N-((Z)-4-(3-Methoxybenzyl)-3-methyl-1,2,4-thiadiazol-5(4H)-ylidene)-N′-phenylbenzimidamide]

Reference: publication PMC10388311, “Innovative Strategy toward Mutant CFTR Rescue in Cystic Fibrosis: Design and Synthesis of Thiadiazole Inhibitors of the E3 Ligase RNF5” (Journal of Medicinal Chemistry, 2023)
